Test results published in US11648254B2 (Kumquat Biosciences Inc., priority 2021, dated 2023).
Where two headings read alike, the source gives them in different places.

Experiments:
[1] = system: MIA PaCa-2 cells (K-Ras G12C); experiment: Ras-SOS cellular growth inhibition assay (CellTiter-Glo, 3D); format: cell-based; conditions: Homo sapiens
In short: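 MIA PaCa-2 cells grown in ultra-low-attachment plates (3D) in DMEM/Ham's F12 with 10% FCS and 2.5% horse serum, treated the day after seeding with a 9-point 3-fold compound series for about 5 days. Viability by CellTiter-Glo luminescence; IC50 from four-parameter fit.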

[2] = system: NCI-H1975 cells (EGFR T790M L858R); experiment: EGFR-SOS cellular inhibition assay (CellTiter-Glo, 3D); format: cell-based; conditions: Homo sapiens
SOS1 = SOS1 (Homo sapiens (Human), UniProt Q07889); experiment: Ras-SOS interaction assay (HTRF); format: biochemical
[3] = MIA PaCa-2, 120 h, MIA PaCa-2, 3D proliferation, about 5 days, read-out: Bio-Cell-Prolif-3D (MiaPaca2 IC50)
[4] = MIA PaCa-2, MIA PaCa-2, read-out: IC50 in inhibiting MIA PaCa-2 cell growth
[5] = 120 h, NCI-H1975, 3D proliferation, about 5 days, read-out: Bio-Cell-Prolif-3D (H1975 IC50)
[6] = NCI-H1975, EGFR T790M L858R, read-out: IC50 in inhibiting growth of NCI-H1975 cell line
[7] = K-RasG13D utilized, read-out: IC50 inhibition of SOS
[8] = K-RasG13D, read-out: IC50 value against SOS1

SOS1, sequence (Q07889 564-1049): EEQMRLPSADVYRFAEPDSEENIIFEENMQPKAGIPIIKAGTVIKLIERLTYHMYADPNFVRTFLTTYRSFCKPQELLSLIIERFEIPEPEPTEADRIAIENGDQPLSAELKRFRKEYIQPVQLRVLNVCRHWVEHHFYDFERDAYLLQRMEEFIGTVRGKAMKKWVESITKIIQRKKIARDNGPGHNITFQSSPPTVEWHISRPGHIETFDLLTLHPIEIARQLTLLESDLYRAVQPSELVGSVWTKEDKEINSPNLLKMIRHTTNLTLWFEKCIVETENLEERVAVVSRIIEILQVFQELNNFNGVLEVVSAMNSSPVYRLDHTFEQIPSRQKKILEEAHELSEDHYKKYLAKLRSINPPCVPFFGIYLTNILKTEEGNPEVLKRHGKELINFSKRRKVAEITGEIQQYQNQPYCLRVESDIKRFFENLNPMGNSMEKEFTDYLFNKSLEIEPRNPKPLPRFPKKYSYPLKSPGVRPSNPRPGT

| Structure (SMILES) | IC50 [1, 3] | IC50 [1, 4] | IC50 [2, 5] | IC50 [2, 6] | IC50 (SOS1; [7]) | IC50 (SOS1; [8]) |
| --- | --- | --- | --- | --- | --- | --- |
| Cc1c([C@@H](C)Nc2ncnc3nc(Cl)c(C4CCN(C(C)C)CC4)cc23)cccc1C(F)(F)F [Compound 385, (R)-7-chloro-6-(1-isopropylpiperidin-4-yl)-N-(1-(2-methyl-3-(trifluoromethyl)phenyl)ethyl)pyrido [2,3-d]pyrimidin-4-amine] | ≤ 1000 nM | < 500 nM | ≤ 1000 nM | < 500 nM | < 100 nM | < 50 nM |
| COc1nc2ncnc(N[C@H](C)c3cccc(C(F)(F)F)c3C)c2cc1N1CCN(C)CC1 [Compound 386, (R)-7-methoxy-N-(1-(2-methyl-3-(trifluoromethyl)phenyl)ethyl)-6-(4-methylpiperazin-1-yl)pyrido[2,3-d] pyrimidin-4-amine] | ≤ 1000 nM | < 500 nM | ≤ 1000 nM | < 500 nM | < 100 nM | < 50 nM |
| Cc1nc(N[C@H](C)c2cccc(C(F)(F)F)c2F)c2cc(N3CCN(C(C)C)CC3)c(Cl)nc2n1 [Compound 387, (R)-7-chloro-N-(1-(2-fluoro-3-(trifluoromethyl)phenyl)ethyl)-6-(4-isopropylpiperazin-1-yl)-2-methylpyrido[2,3-d] pyrimidin-4-amine] | ≤ 1000 nM | < 500 nM | ≤ 1000 nM | < 500 nM | < 100 nM | < 50 nM |
| Cc1nc(N[C@H](C)c2cccc(C(F)(F)F)c2C)c2cc(C3CCS(=O)(=O)CC3)c(Cl)nc2n1 [Compound 388, (R)-4-(7-chloro-2-methyl-4-((1-(2-methyl-3-(trifluoromethyl)phenyl)ethyl)amino)pyrido[2,3-d]pyrimidin-6-yl)tetrahydro-2H-thiopyran 1,1-dioxide] | ≤ 1000 nM | < 500 nM | ≤ 1000 nM | < 500 nM | < 100 nM | < 50 nM |
| Cc1nc(N[C@H](C)c2cccc(C(F)F)c2F)c2cc(C3CCS(=O)(=O)CC3)c(Cl)nc2n1 [Compound 389, (R)-4-(7-chloro-4-((1-(3-(difluoromethyl)-2-fluorophenyl)ethyl)amino)-2-methylpyrido[2,3-d]pyrimidin-6-yl)tetrahydro-2H-thiopyran 1,1-dioxide] | ≤ 1000 nM | < 500 nM | ≤ 1000 nM | < 500 nM | < 100 nM | < 50 nM |
| Cc1nc(N[C@H](C)c2cccc(C(F)(F)F)c2C)c2cc(N3CCS(=O)(=O)CC3)c(Cl)nc2n1 [Compound 390, (R)-4-(7-chloro-2-methyl-4-((1-(2-methyl-3-(trifluoromethyl)phenyl)ethyl)amino)pyrido[2,3-d]pyrimidin-6-yl) thiomorpholine 1,1-dioxide] | ≤ 1000 nM | < 500 nM | ≤ 1000 nM | < 500 nM | < 100 nM | < 50 nM |
| Cc1nc(N[C@H](C)c2cccc(C(F)(F)F)c2F)c2cc(C3CCN(C(C)C)CC3)c(Cl)nc2n1 [Compound 391, (R)-7-chloro-N-(1-(2-fluoro-3-(trifluoromethyl)phenyl)ethyl)-6-(1-isopropylpiperidin-4-yl)-2-methylpyrido[2,3-d] pyrimidin-4-amine] | ≤ 1000 nM | < 500 nM | ≤ 1000 nM | < 500 nM | < 100 nM | < 50 nM |
| Cc1nc(N[C@H](C)c2cccc(C(F)(F)F)c2C)c2cc(C3CCN(C(C)C)CC3)c(Cl)nc2n1 [Compound 392, (R)-7-chloro-6-(1-isopropylpiperidin-4-yl)-2-methyl-N-(1-(2-methyl-3-(trifluoromethyl)phenyl)ethyl)pyrido [2,3-d]pyrimidin-4-amine] | ≤ 1000 nM | < 500 nM | ≤ 1000 nM | < 500 nM | < 100 nM | < 50 nM |
| C[C@@H](Nc1ncnc2nc(Cl)c(C3CCS(=O)(=O)CC3)cc12)c1cccc(C(F)F)c1F [Compound 393, (R)-4-(7-chloro-4-((1-(3-(difluoromethyl)-2-fluorophenyl)ethyl)amino)pyrido [2,3-d]pyrimidin-6-yl)tetrahydro-2H-thiopyran 1,1-dioxide] | ≤ 1000 nM | < 500 nM | ≤ 1000 nM | < 500 nM | < 100 nM | < 50 nM |
| CC(C)N1CCN(c2cc3c(N[C@H](C)c4cccc(C(F)(F)F)c4F)ncnc3nc2Cl)CC1 [Compound 394, (R)-7-chloro-N-(1-(2-fluoro-3-(trifluoromethyl)phenyl)ethyl)-6-(4-isopropylpiperazin-1-yl)pyrido[2,3-d] pyrimidin-4-amine] | ≤ 1000 nM | < 500 nM | ≤ 1000 nM | < 500 nM | < 100 nM | < 50 nM |
| Cc1c([C@@H](C)Nc2ncnc3nc(Cl)c(N4CCN(C(C)C)CC4)cc23)cccc1C(F)(F)F [Compound 395, (R)-7-chloro-6-(4-isopropylpiperazin-1-yl)-N-(1-(2-methyl-3-(trifluoromethyl)phenyl)ethyl)pyrido [2,3-d]pyrimidin-4-amine] | ≤ 1000 nM | < 500 nM | ≤ 1000 nM | < 500 nM | < 100 nM | < 50 nM |
| Cc1nc(N[C@H](C)c2cccc(C(F)F)c2F)c2cc(C3(C#N)CC3)c(N3CCOCC3)nc2n1 [Compound 396, (R)-1-(4-((1-(3-(difluoromethyl)-2-fluorophenyl)ethyl)amino)-2-methyl-7-morpholinopyrido[2,3-d]pyrimidin-6-yl)cyclopropane-1-carbonitrile] | ≤ 1000 nM | < 500 nM | ≤ 1000 nM |  | < 100 nM | < 50 nM |
| Cc1nc(N[C@H](C)c2cccc(C(F)F)c2F)c2cc(N3CCN(C)CC3)c(OCC3COC3)nc2n1 [Compound 397, (R)-N-(1-(3-(difluoromethyl)-2-fluorophenyl)ethyl)-2-methyl-6-(4-methylpiperazin-1-yl)-7-(oxetan-3-ylmethoxy)pyrido[2,3-d]pyrimidin-4-amine] | ≤ 1000 nM | < 500 nM | ≤ 1000 nM | < 500 nM | < 100 nM | < 50 nM |
| CCN1CCC(c2cc3c(N[C@H](C)c4cccc(C(F)F)c4F)nc(C)nc3nc2OCCN(C)C)CC1 [Compound 399, (R)-N-(1-(3-(difluoromethyl)-2-fluorophenyl)ethyl)-7-(2-(dimethylamino)ethoxy)-6-(1-ethylpiperidin-4-yl)-2-methylpyrido[2,3-d] pyrimidin-4-amine] | 1000 to 10000 nM |  | ≤ 1000 nM |  | < 100 nM | < 50 nM |
| Cc1nc(N[C@H](C)c2cccc(C(F)F)c2F)c2cc(C3CCS(=O)(=O)CC3)c(NC3COC3)nc2n1 [Compound 401, (R)-4-(4-((1-(3-(difluoromethyl)-2-fluorophenyl)ethyl)amino)-2-methyl-7-(oxetan-3-ylamino)pyrido[2,3-d]pyrimidin-6-yl)tetrahydro-2H-thiopyran 1,1-dioxide] | 1000 to 10000 nM |  | ≤ 1000 nM |  | < 100 nM | < 50 nM |
| CNCCOc1nc2nc(C)nc(N[C@H](C)c3cccc(C(F)F)c3F)c2cc1C1CCN(C(C)C)CC1 [Compound 404, (R)-N-(1-(3-(difluoromethyl)-2-fluorophenyl)ethyl)-6-(1-isopropylpiperidin-4-yl)-2-methyl-7-(2-(methylamino)ethoxy)pyrido[2,3-d] pyrimidin-4-amine] | 1000 to 10000 nM |  | 1000 to 10000 nM |  | < 100 nM | < 50 nM |
| CNCCOc1nc2nc(C)nc(N[C@H](C)c3cccc(C(F)F)c3F)c2cc1N1CCN(C(C)C)CC1 [Compound 406, (R)-N-(1-(3-(difluoromethyl)-2-fluorophenyl)ethyl)-6-(4-isopropylpiperazin-1-yl)-2-methyl-7-(2-(methylamino)ethoxy)pyrido[2,3-d] pyrimidin-4-amine] | ≤ 1000 nM | < 500 nM | ≤ 1000 nM | < 500 nM | < 100 nM | < 50 nM |
| Cc1nc(N[C@H](C)c2cccc(C(F)F)c2F)c2cc(C3CCN(C(C)C)CC3)c(NC3COC3)nc2n1 [Compound 407, (R)-N4-(1-(3-(difluoromethyl)-2-fluorophenyl)ethyl)-6-(1-isopropylpiperidin-4-yl)-2-methyl-N7-(oxetan-3-yl)pyrido [2,3-d]pyrimidine-4,7-diamine] | 1000 to 10000 nM |  | 1000 to 10000 nM |  | < 100 nM | < 50 nM |
| Cc1nc(N[C@H](C)c2cccc(C(F)F)c2F)c2cc(C3CCN(C(C)C)CC3)c(OC3CN(C)C3)nc2n1 [Compound 410, (R)-N-(1-(3-(difluoromethyl)-2-fluorophenyl)ethyl)-6-(1-isopropylpiperidin-4-yl)-2-methyl-7-((1-methylazetidin-3-yl)oxy)pyrido[2,3-d]pyrimidin-4-amine] | ≤ 1000 nM | < 500 nM | ≤ 1000 nM | < 500 nM | < 100 nM | < 50 nM |
| Cc1nc(N[C@H](C)c2cccc(C(F)F)c2F)c2cc(N3CCN(C)CC3)c(OC3COC3)nc2n1 [Compound 411, (R)-N-(1-(3-(difluoromethyl)-2-fluorophenyl)ethyl)-2-methyl-6-(4-methylpiperazin-1-yl)-7-(oxetan-3-yloxy)pyrido[2,3-d]pyrimidin-4-amine] | ≤ 1000 nM | < 500 nM | ≤ 1000 nM | < 500 nM | < 100 nM | < 50 nM |
